From US20250262186A1 (SANOFI, priority 2022, published 2025)

Biological target: T1, ERα (Homo sapiens, UniProt P03372)
T1 construct: made using a breast cancer cell ERα in cell western assay; host or cells: MCF7
T1 sequence (P03372 1-595): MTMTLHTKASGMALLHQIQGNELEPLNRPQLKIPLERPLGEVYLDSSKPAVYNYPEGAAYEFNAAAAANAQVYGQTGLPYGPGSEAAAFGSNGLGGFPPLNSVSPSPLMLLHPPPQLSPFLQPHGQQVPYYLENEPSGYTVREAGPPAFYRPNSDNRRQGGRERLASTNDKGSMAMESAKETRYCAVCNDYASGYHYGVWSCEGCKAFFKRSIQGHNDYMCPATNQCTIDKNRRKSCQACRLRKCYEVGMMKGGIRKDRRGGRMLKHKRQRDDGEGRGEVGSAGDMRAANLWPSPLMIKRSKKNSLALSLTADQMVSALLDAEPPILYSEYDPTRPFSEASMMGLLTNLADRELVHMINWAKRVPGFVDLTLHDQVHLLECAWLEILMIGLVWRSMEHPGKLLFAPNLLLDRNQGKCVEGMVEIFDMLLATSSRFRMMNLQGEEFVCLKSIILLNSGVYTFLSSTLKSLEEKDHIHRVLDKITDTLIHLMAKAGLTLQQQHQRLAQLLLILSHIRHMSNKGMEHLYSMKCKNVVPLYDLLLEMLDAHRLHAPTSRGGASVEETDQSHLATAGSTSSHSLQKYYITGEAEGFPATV
Test: Estrogen receptor degradation activity: breast cancer cell ERα in cell western assay in MCF7 cells
Type: cell-based
Conditions: for % Degradation At 0.3 μM: 4 hours, relative to fulvestrant 0.1 μM positive control; for degradation activity for estrogen receptors (in words): text statement on comparative compounds
Description: Said test involves measuring the in vitro degradation activity of the compounds of the Table 1a.
The measurements of the degradation activities were made using a breast cancer cell ERα in cell western assay as described hereunder.
MCF7 cells (ATCC) were seeded in 384 wells microplate (collagen coated) at a concentration of 10000 cells/30 μL per well in red phenol free MEM alpha medium (invitrogen) containing 5% charcoal dextran striped FBS. The following day, 9 points serial 1:5 dilution of each compound was added to the cells in 2.5 μL at final concentrations ranging from 0.3-0.0000018 μM (in table 2), or 0.1 μM for fulvestrant (using as positive control). At 4 hours post compound addition the cells were fixed by adding 25 μL of formalin (final concentration 5% formalin containing 0.1% triton) for 10 minutes at room temperature and then washed twice with PBS. Then, 50 μL of LI-COR blocking buffer containing 0.1% Triton was added to plate for 30 minutes at room temperature. LI-COR blocking buffer was removed and cells were incubated overnight at cold room with 50 μL anti-ER rabbit monoclonal antibody (Thermo scientific MA1-39540) diluted at 1:1000 in LI-COR blocking buffer containing 0.1% tween-20. Wells which were treated with blocking buffer but no antibody were used as background control. Wells were washed twice with PBS (0.1% tween-20) and incubated at 37° C. for 60 minutes in LI-COR (0.1% tween-20) containing goat anti-rabbit antibody Alexa 488 (1:1000) and Syto-64 a DNA dye (2 μM final concentration). Cells were then washed 3 times in PBS and scanned in ACUMEN explorer (TTP-Labtech). Integrated intensities in the green fluorescence and red fluorescence were measured to determine the levels of ERα and DNA respectively.
The degradation activity with respect to estrogen receptors in this test is given by the concentration which degrades 50% of the estrogen receptor (or IC50) in nM.
The % of ERα levels decrease were determined as follows: % inhibition=100*(1−(sample−fulvestrant: DMSO−fulvestrant)).

| Structure (SMILES) | % Degradation At 0.3 μM | degradation activity for estrogen receptors (in words) |
| --- | --- | --- |
| CC1CCC(C2=C(c3cccc(OC4CCN(CCCF)C4)c3)c3ccc(C(=O)O)cc3CCC2)CC1 (single isomer, unassigned; isomer 2) [Compound 12] | 84% | – |
| O=C(O)c1ccc2c(c1)CCCC(c1ccc(Cl)cc1Cl)=C2c1cccc(O[C@@H]2CCN(CCCF)C2)c1 [Compound 1, (R)-8-(2,4-dichlorophenyl)-9-(3-((1-(3-fluoropropyl)pyrrolidin-3-yl)oxy)phenyl)-6,7-dihydro-5H-benzo[7]annulene-3-carboxylic acid] | 85% | – |
| O=C(O)c1ccc2c(c1)CCCC(c1ccccc1)=C2c1cccc(O[C@H]2CCN(CCCF)C2)c1 [Compound 2a, (S)-9-(3-((1-(3-fluoropropyl)pyrrolidin-3-yl)oxy)phenyl)-8-phenyl-6,7-dihydro-5H-benzo[7]annulene-3-carboxylic acid] | Inactive | inactive |
| O=C(O)c1ccc2c(c1)CCCC(c1ccccc1Cl)=C2c1cccc(O[C@@H]2CCN(CCCF)C2)c1 [Compound 3, (R)-8-(2-chlorophenyl)-9-(3-((1-(3-fluoropropyl)pyrrolidin-3-yl)oxy)phenyl)-6,7-dihydro-5H-benzo[7]annulene-3-carboxylic acid] | 84% | – |
| Cc1ccc(C2=C(c3cccc(O[C@@H]4CCN(CCCF)C4)c3)c3ccc(C(=O)O)cc3CCC2)c(F)c1 [Compound 7, (R)-8-(2-fluoro-4-methylphenyl)-9-(3-((1-(3-fluoropropyl)pyrrolidin-3-yl)oxy)phenyl)-6,7-dihydro-5H-benzo[7]annulene-3-carboxylic acid] | 85% | – |
| Cl.O=C(O)c1ccc2c(c1)CCCC(C1CCC(F)(F)CC1)=C2c1cccc(O[C@@H]2CCN(CCCF)C2)c1 [Compound 10, (R)-8-(4,4-difluorocyclohexyl)-9-(3-((1-(3-fluoropropyl)pyrrolidin-3-yl)oxy)phenyl)-6,7-dihydro-5H-benzo[7]annulene-3-carboxylic acid hydrochloride] | 85% | – |
| CC1(C)CCC(C2=C(c3cccc(O[C@@H]4CCN(CCCF)C4)c3)c3ccc(C(=O)O)cc3CCC2)CC1.Cl [Compound 13, (R)-8-(4,4-dimethylcyclohexyl)-9-(3-((1-(3-fluoropropyl)pyrrolidin-3-yl)oxy)phenyl)-6,7-dihydro-5H-benzo[7]annulene-3-carboxylic acid, hydrochloride] | 57% | – |
| O=C(O)c1ccc2c(c1)CCCC(C1CCCC1)=C2c1cccc(O[C@@H]2CCN(CCCF)C2)c1 [Compound 14, (R)-8-cyclopentyl-9-(3-((1-(3-fluoropropyl)pyrrolidin-3-yl)oxy)phenyl)-6,7-dihydro-5H-benzo[7]annulene-3-carboxylic acid] | 77% | – |
| Cc1c(O[C@@H]2CCN(CCCF)C2)cccc1C1=C(c2ccccc2Cl)CCCc2cc(C(=O)O)ccc21 [Compound 16, (R)-8-(2-chlorophenyl)-9-(3-((1-(3-fluoropropyl)pyrrolidin-3-yl)oxy)-2-methylphenyl)-6,7-dihydro-5H-benzo[7]annulene-3-carboxylic acid] | 97% | – |
| Cc1cc(F)ccc1C1=C(c2cccc(O[C@@H]3CCN(CCCF)C3)c2C)c2ccc(C(=O)O)cc2CCC1 [Compound 18, (R)-8-(4-fluoro-2-methylphenyl)-9-(3-((1-(3-fluoropropyl)pyrrolidin-3-yl)oxy)-2-methylphenyl)-6,7-dihydro-5H-benzo[7]annulene-3-carboxylic acid] | 78% | – |
| Cl.O=C(O)c1ccc2c(c1)CCCC(c1ccccc1)=C2c1cccc(O[C@@H]2CCN(CCCF)C2)c1F [Compound 19, (R)-9-(2-fluoro-3-((1-(3-fluoropropyl)pyrrolidin-3-yl)oxy)phenyl)-8-phenyl-6,7-dihydro-5H-benzo[7]annulene-3-carboxylic acid, hydrochloride] | 82% | – |
| Cl.O=C(O)c1ccc2c(c1)CCCC(c1ccccc1Cl)=C2c1cccc(O[C@@H]2CCN(CCCF)C2)c1F [Compound 20, (R)-8-(2-chlorophenyl)-9-(2-fluoro-3-((1-(3-fluoropropyl)pyrrolidin-3-yl)oxy)phenyl)-6,7-dihydro-5H-benzo[7]annulene-3-carboxylic acid, hydrochloride] | 88% | – |

Results, then the compound that gave them:

| % Degradation At 0.3 μM | degradation activity for estrogen receptors (in words) | Structure (SMILES) |
| --- | --- | --- |
| 76% | – | CC1CCC(C2=C(c3cccc(OC4CCN(CCCF)C4)c3)c3ccc(C(=O)O)cc3CCC2)CC1 (single isomer, unassigned; isomer 1) [Compound 11] |
| 87% | – | O=C(O)c1ccc2c(c1)CCCC(c1ccc(Cl)cc1Cl)=C2c1cccc(CC2CCN(CCCF)C2)c1 (single isomer, unassigned; isomer 1) [Compound 28, 8-(2,4-dichlorophenyl)-9-(3-((1-(3-fluoropropyl)pyrrolidin-3-yl)methyl)phenyl)-6,7-dihydro-5H-benzo[7]annulene-3-carboxylic acid, Isomer 1] |
| 69% | – | CC1CCc2cc(C(=O)O)ccc2C(c2cccc(OC3CCN(CCCF)C3)c2)=C1c1cccc(Cl)c1 (single isomer, unassigned; isomer 1) [Compound 36] |
| 67% | – | CC1CCc2cc(C(=O)O)ccc2C(c2cccc(OC3CCN(CCCF)C3)c2)=C1c1cccc(Cl)c1 (single isomer, unassigned; isomer 2) [Compound 37] |
| Inactive | inactive | O=C(O)c1ccc2c(c1)CCCC(c1ccc(Cl)cc1Cl)=C2c1cccc(O[C@H]2CCN(CCCF)C2)c1 [Compound 1a, (S)-8-(2,4-dichlorophenyl)-9-(3-((1-(3-fluoropropyl)pyrrolidin-3-yl)oxy)phenyl)-6,7-dihydro-5H-benzo[7]annulene-3-carboxylic acid] |
| 81% | – | O=C(O)c1ccc2c(c1)CCCC(c1ccccc1)=C2c1cccc(O[C@@H]2CCN(CCCF)C2)c1 [Compound 2, (R)-9-(3-((1-(3-fluoropropyl)pyrrolidin-3-yl)oxy)phenyl)-8-phenyl-6,7-dihydro-5H-benzo[7]annulene-3-carboxylic acid] |
| 91% | – | O=C(O)c1ccc2c(c1)CCCC(c1ccc(F)cc1Cl)=C2c1cccc(O[C@@H]2CCN(CCCF)C2)c1 [Compound 5, (R)-8-(2-chloro-4-fluorophenyl)-9-(3-((1-(3-fluoropropyl)pyrrolidin-3-yl)oxy)phenyl)-6,7-dihydro-5H-benzo[7]annulene-3-carboxylic acid] |
| 89% | – | O=C(O)c1ccc2c(c1)CCCC(c1ccc(Cl)cc1F)=C2c1cccc(O[C@@H]2CCN(CCCF)C2)c1 [Compound 6, (R)-8-(4-chloro-2-fluorophenyl)-9-(3-((1-(3-fluoropropyl)pyrrolidin-3-yl)oxy)phenyl)-6,7-dihydro-5H-benzo[7]annulene-3-carboxylic acid] |
| 90% | – | O=C(O)c1ccc2c(c1)CCCC(c1cccc(F)c1Cl)=C2c1cccc(O[C@@H]2CCN(CCCF)C2)c1 [Compound 9, (R)-8-(2-chloro-3-fluorophenyl)-9-(3-((1-(3-fluoropropyl)pyrrolidin-3-yl)oxy)phenyl)-6,7-dihydro-5H-benzo[7]annulene-3-carboxylic acid] |
| 80% | – | Cc1c(O[C@@H]2CCN(CCCF)C2)cccc1C1=C(c2ccccc2)CCCc2cc(C(=O)O)ccc21 [Compound 15, (R)-9-(3-((1-(3-fluoropropyl)pyrrolidin-3-yl)oxy)-2-methylphenyl)-8-phenyl-6,7-dihydro-5H-benzo[7]annulene-3-carboxylic acid] |
| 87% | – | Cc1c(O[C@@H]2CCN(CCCF)C2)cccc1C1=C(c2ccc(Cl)cc2Cl)CCCc2cc(C(=O)O)ccc21 [Compound 17, (R)-8-(2,4-dichlorophenyl)-9-(3-((1-(3-fluoropropyl)pyrrolidin-3-yl)oxy)-2-methylphenyl)-6,7-dihydro-5H-benzo[7]annulene-3-carboxylic acid] |
